Measured values from PubChem BioAssay (NCI).
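Briefly, cells in 96-well plates were exposed to five compound concentrations for 48 h, and endpoints were estimated by linear interpolation. Abbreviation: GI50, concentration required for 50% inhibition of growth. TGI: total growth inhibition.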

Assays:
Assay in all cases: inhibition of tumour cell growth, NCI panel, 48 h
786-0 renal = tested on: 786-0 renal
A498 renal = tested on: A498 renal
A549 NSCLC = tested on: A549 NSCLC
ACHN renal = tested on: ACHN renal
BT-549 breast = tested on: BT-549 breast
CAKI-1 renal = tested on: CAKI-1 renal
CCRF-CEM leukemia = tested on: CCRF-CEM leukemia
COLO 205 colon = tested on: COLO 205 colon
DU-145 prostate = tested on: DU-145 prostate
HCC-2998 colon = tested on: HCC-2998 colon
HCT-116 colon = tested on: HCT-116 colon
HCT-15 colon = tested on: HCT-15 colon
HL-60(TB) leukemia = tested on: HL-60(TB) leukemia
HOP-62 NSCLC = tested on: HOP-62 NSCLC
HOP-92 NSCLC = tested on: HOP-92 NSCLC
HS 578T breast = tested on: HS 578T breast
HT29 colon = tested on: HT29 colon
IGROV1 ovarian = tested on: IGROV1 ovarian
K-562 leukemia = tested on: K-562 leukemia
KM12 colon = tested on: KM12 colon
LOX IMVI melanoma = tested on: LOX IMVI melanoma
M14 melanoma = tested on: M14 melanoma
MALME-3M melanoma = tested on: MALME-3M melanoma
MCF7 breast = tested on: MCF7 breast
MDA-MB-231 breast = tested on: MDA-MB-231 breast
MDA-MB-435 = tested on: MDA-MB-435
MOLT-4 leukemia = tested on: MOLT-4 leukemia
NCI-H226 lung = tested on: NCI-H226 lung
NCI-H23 lung = tested on: NCI-H23 lung
NCI-H460 lung = tested on: NCI-H460 lung
NCI-H522 lung = tested on: NCI-H522 lung
NCI/ADR-RES ovarian = tested on: NCI/ADR-RES ovarian
OVCAR-3 ovarian = tested on: OVCAR-3 ovarian
OVCAR-4 ovarian = tested on: OVCAR-4 ovarian
OVCAR-5 ovarian = tested on: OVCAR-5 ovarian
OVCAR-8 ovarian = tested on: OVCAR-8 ovarian
PC-3 prostate = tested on: PC-3 prostate
RPMI-8226 leukemia = tested on: RPMI-8226 leukemia
RXF 393 renal = tested on: RXF 393 renal
SF-268 CNS = tested on: SF-268 CNS
SF-295 CNS = tested on: SF-295 CNS
SF-539 CNS = tested on: SF-539 CNS
SK-MEL-2 melanoma = tested on: SK-MEL-2 melanoma
SK-MEL-28 melanoma = tested on: SK-MEL-28 melanoma
SK-MEL-5 melanoma = tested on: SK-MEL-5 melanoma
SK-OV-3 ovarian = tested on: SK-OV-3 ovarian
SN12C renal = tested on: SN12C renal
SNB-19 CNS = tested on: SNB-19 CNS
SNB-75 CNS = tested on: SNB-75 CNS
SR leukemia = tested on: SR leukemia
SW-620 colon = tested on: SW-620 colon
T-47D breast = tested on: T-47D breast
TK-10 renal = tested on: TK-10 renal
U251 CNS = tested on: U251 CNS
UACC-257 melanoma = tested on: UACC-257 melanoma
UACC-62 melanoma = tested on: UACC-62 melanoma
UO-31 renal = tested on: UO-31 renal

CNc1nc(NC2CCCC2)nc(Sc2ccc(OC)cc2)n1
GI50 (786-0 renal): > 10 µM
TGI (786-0 renal): > 10 µM
GI50 (A498 renal): > 10 µM
TGI (A498 renal): > 10 µM
GI50 (A549 NSCLC): > 10 µM
TGI (A549 NSCLC): > 10 µM
GI50 (ACHN renal): > 10 µM
TGI (ACHN renal): > 10 µM
GI50 (BT-549 breast): > 10 µM
TGI (BT-549 breast): > 10 µM
GI50 (CAKI-1 renal): > 10 µM
TGI (CAKI-1 renal): > 10 µM
GI50 (CCRF-CEM leukemia): > 10 µM
TGI (CCRF-CEM leukemia): > 10 µM
GI50 (COLO 205 colon): > 10 µM
TGI (COLO 205 colon): > 10 µM
GI50 (DU-145 prostate): > 10 µM
TGI (DU-145 prostate): > 10 µM
GI50 (HCC-2998 colon): > 10 µM
TGI (HCC-2998 colon): > 10 µM
GI50 (HCT-116 colon): > 10 µM
TGI (HCT-116 colon): > 10 µM
GI50 (HCT-15 colon): > 10 µM
TGI (HCT-15 colon): > 10 µM
GI50 (HL-60(TB) leukemia): > 10 µM
TGI (HL-60(TB) leukemia): > 10 µM
GI50 (HOP-62 NSCLC): > 10 µM
TGI (HOP-62 NSCLC): > 10 µM
GI50 (HOP-92 NSCLC): 1.09 µM
TGI (HOP-92 NSCLC): 9.5 µM
GI50 (HS 578T breast): > 10 µM
TGI (HS 578T breast): > 10 µM
GI50 (HT29 colon): > 10 µM
TGI (HT29 colon): > 10 µM
GI50 (IGROV1 ovarian): > 10 µM
TGI (IGROV1 ovarian): > 10 µM
GI50 (K-562 leukemia): > 10 µM
TGI (K-562 leukemia): > 10 µM
GI50 (KM12 colon): > 10 µM
TGI (KM12 colon): > 10 µM
GI50 (LOX IMVI melanoma): > 10 µM
TGI (LOX IMVI melanoma): > 10 µM
GI50 (M14 melanoma): > 10 µM
TGI (M14 melanoma): > 10 µM
GI50 (MALME-3M melanoma): > 10 µM
TGI (MALME-3M melanoma): > 10 µM
GI50 (MCF7 breast): > 10 µM
TGI (MCF7 breast): > 10 µM
GI50 (MDA-MB-231 breast): > 10 µM
TGI (MDA-MB-231 breast): > 10 µM
GI50 (MDA-MB-435): > 10 µM
TGI (MDA-MB-435): > 10 µM
GI50 (MOLT-4 leukemia): > 10 µM
TGI (MOLT-4 leukemia): > 10 µM
GI50 (NCI-H226 lung): > 10 µM
TGI (NCI-H226 lung): > 10 µM
GI50 (NCI-H23 lung): > 10 µM
TGI (NCI-H23 lung): > 10 µM
GI50 (NCI-H460 lung): > 10 µM
TGI (NCI-H460 lung): > 10 µM
GI50 (NCI-H522 lung): > 10 µM
TGI (NCI-H522 lung): > 10 µM
GI50 (NCI/ADR-RES ovarian): > 10 µM
TGI (NCI/ADR-RES ovarian): > 10 µM
GI50 (OVCAR-3 ovarian): > 10 µM
TGI (OVCAR-3 ovarian): > 10 µM
GI50 (OVCAR-4 ovarian): > 10 µM
TGI (OVCAR-4 ovarian): > 10 µM
GI50 (OVCAR-5 ovarian): > 10 µM
TGI (OVCAR-5 ovarian): > 10 µM
GI50 (OVCAR-8 ovarian): > 10 µM
TGI (OVCAR-8 ovarian): > 10 µM
GI50 (PC-3 prostate): > 10 µM
TGI (PC-3 prostate): > 10 µM
GI50 (RPMI-8226 leukemia): > 10 µM
TGI (RPMI-8226 leukemia): > 10 µM
GI50 (RXF 393 renal): > 10 µM
TGI (RXF 393 renal): > 10 µM
GI50 (SF-268 CNS): > 10 µM
TGI (SF-268 CNS): > 10 µM
GI50 (SF-295 CNS): > 10 µM
TGI (SF-295 CNS): > 10 µM
GI50 (SF-539 CNS): > 10 µM
TGI (SF-539 CNS): > 10 µM
GI50 (SK-MEL-2 melanoma): > 10 µM
TGI (SK-MEL-2 melanoma): > 10 µM
GI50 (SK-MEL-28 melanoma): > 10 µM
TGI (SK-MEL-28 melanoma): > 10 µM
GI50 (SK-MEL-5 melanoma): > 10 µM
TGI (SK-MEL-5 melanoma): > 10 µM
GI50 (SK-OV-3 ovarian): > 10 µM
TGI (SK-OV-3 ovarian): > 10 µM
GI50 (SN12C renal): > 10 µM
TGI (SN12C renal): > 10 µM
GI50 (SNB-19 CNS): > 10 µM
TGI (SNB-19 CNS): > 10 µM
GI50 (SNB-75 CNS): > 10 µM
TGI (SNB-75 CNS): > 10 µM
GI50 (SR leukemia): > 10 µM
TGI (SR leukemia): > 10 µM
GI50 (SW-620 colon): > 10 µM
TGI (SW-620 colon): > 10 µM
GI50 (T-47D breast): > 10 µM
TGI (T-47D breast): > 10 µM
GI50 (TK-10 renal): > 10 µM
TGI (TK-10 renal): > 10 µM
GI50 (U251 CNS): > 10 µM
TGI (U251 CNS): > 10 µM
GI50 (UACC-257 melanoma): > 10 µM
TGI (UACC-257 melanoma): > 10 µM
GI50 (UACC-62 melanoma): > 10 µM
TGI (UACC-62 melanoma): > 10 µM
GI50 (UO-31 renal): > 10 µM
TGI (UO-31 renal): > 10 µM
